Data as given in publication PMC3466212, “Novel AChE Inhibitors for Sustainable Insecticide Resistance Management” (PLoS ONE, 2012).
Where two headings read alike, the source gives them in different places.

Key:
[1] = test system: C. pipiens Slab strain larvae; experiment: Larval bioassay, Slab strain (OP-susceptible); conditions: for Mortality at 300 µM, Slab: fourth-instar larvae, 24 hours exposure; for mortality at 300 µM: Culex pipiens, 24 h, read-out: Mortality at 300 µM, Slab
Description: Three C. pipiens strains were used: the susceptible reference Slab strain, homozygous for ace-1 ^S [39], the resistant reference SR strain, carrying the genetical background of Slab but homozygous for the G119S mutation, allele ace-1 ^R [21] and the Ducos strain, carrying the genetical background of Slab but homozygous for an ace-1 duplication, with one ace-1^S and ace-1^R copy in tandem. Culex pipiens heterozygous larvae (Slab×SR) were obtained by crossing Slab males and SR females. Two A. gambiae reference strains (S molecular form) were used: the susceptible strain Kisumu, homozygous for ace-1 ^S, collected in Kenya in 1953 and maintained since then under laboratory conditions and the resistant Acerkis strain, carrying the genetical background of Kisumu but homozygous for an ace-1^R allele from a population collected in Bobo-Dioulasso, Burkina Faso [41].
Insecticidal activity was determined by performing bioassays on fourth-instar larvae as described in [42]. Each compound was dissolved in ethanol. Propoxur (CX) and chlorpyrifos (OP) were used as references. For each compound, we first tested mortality after a 24-hour exposure at 300 µM. […] Mortality data were analyzed by the log-probit program. This program takes into account natural mortality and provides lethal doses (LD) and slopes for each mortality line; it also computes resistance ratios (RR) for each LD, with 95% confidence intervals.

[2] = test system: C. pipiens SR strain larvae; experiment: Larval bioassay, SR strain (OP-resistant); conditions: for Mortality at 300 µM, SR: fourth-instar larvae, 24 hours exposure; for mortality at 300 µM: Culex pipiens, 24 h, read-out: Mortality at 300 µM, SR
Description: Three C. pipiens strains were used: the susceptible reference Slab strain, homozygous for ace-1 ^S [39], the resistant reference SR strain, carrying the genetical background of Slab but homozygous for the G119S mutation, allele ace-1 ^R [21] and the Ducos strain, carrying the genetical background of Slab but homozygous for an ace-1 duplication, with one ace-1^S and ace-1^R copy in tandem. Culex pipiens heterozygous larvae (Slab×SR) were obtained by crossing Slab males and SR females.
Insecticidal activity was determined by performing bioassays on fourth-instar larvae as described in [42]. Each compound was dissolved in ethanol. Propoxur (CX) and chlorpyrifos (OP) were used as references. For each compound, we first tested mortality after a 24-hour exposure at 300 µM. […] Mortality data were analyzed by the log-probit program.

[3] = molecular target: T1, G119S AChE1 (Culex pipiens, UniProt Q86GC8, G247S); experiment: biochemical; type: biochemical
T1 construct: made in house; host or cells: Drosophila S2 cells
Protocol: Production of C. pipiens WT and mutated AChE1s in Drosophila S2 cells was already described. The chemical library (ChemBridge, 3,000 compounds) screening was performed in duplicate on G119S recombinant AChE1. Chemicals were made soluble in ethanol or dimethylsulphoxide (DMSO), and then diluted at 300 µM in ethanol for storage. […] PTF analogs were analyzed in dose-response experiments (10-fold serial dilutions from 3 mM to 30 nM), using recombinant WT and G119S AChE1 or mosquito head extracts (heads cut from frozen mosquitoes, homogenized in 400 µl PB containing 1% Triton X-100 and cleared by centrifugation at 9,000×g for 3 min). Depending on compound availability, two to five replicates were performed with distinct batches of enzyme. […] IC50 was estimated by nonlinear least square regression. IC50 was also measured on AChE1 from susceptible and resistant mosquito larvae extracts.

[4] = molecular target: WT AChE1 (Culex pipiens, UniProt Q86GC8); experiment: AChE assay (Ellman), dose-response on recombinant WT AChE1; type: biochemical; parameters: made in house; host or cells: Drosophila S2 cells
Protocol: Production of C. pipiens WT and mutated AChE1s in Drosophila S2 cells was already described. The chemical library (ChemBridge, 3,000 compounds) screening was performed in duplicate on G119S recombinant AChE1. Chemicals were made soluble in ethanol or dimethylsulphoxide (DMSO), and then diluted at 300 µM in ethanol for storage. Compounds (30 µM final concentration) were incubated for 15 min at room temperature with 100 µl of G119S recombinant AChE1 then 100 µl of substrate (acetylthiocholine, 1.6 mM, Sigma-Aldrich) was added and the residual activity was quantified by measuring the optical density at 412 nm, as described by Ellman et al.. PTF analogs were analyzed in dose-response experiments (10-fold serial dilutions from 3 mM to 30 nM), using recombinant WT and G119S AChE1 or mosquito head extracts (heads cut from frozen mosquitoes, homogenized in 400 µl PB containing 1% Triton X-100 and cleared by centrifugation at 9,000×g for 3 min). Depending on compound availability, two to five replicates were performed with distinct batches of enzyme. […] IC50 was estimated by nonlinear least square regression. IC50 was also measured on AChE1 from susceptible and resistant mosquito larvae extracts.

[5] = recombinant OP-insensitive G119S C. pipiens AChE1, 15 min incubation, acetylthiocholine, read-out: IC50 G119S
[6] = recombinant wild-type C. pipiens AChE1, 15 min incubation, acetylthiocholine, read-out: IC50 WT

For CCOP(=O)(OCC)Oc1nc(Cl)c(Cl)cc1Cl [Chlorpyrifos-oxon, reference compound], the “Mortality at 300 µM, Slab” value [1] was 100% and the “Mortality at 300 µM, SR” value [2] was 100%.
COP(=O)(OC)OC=C(Cl)Cl [Dichlorvos, reference compound] gave an IC50 [3] of 2 µM, a mortality at 300 µM [1] of 100% and a mortality at 300 µM [2] of 100%. For the same molecule, the IC50 [4] was 0.45 µM.
For C=CCN1C(=O)NC(=O)C(=Cc2ccc(C)o2)C1=O [PTF-1], the IC50 [3, 5] was 2.2 µM, the “Mortality at 300 µM, Slab” value [1] was 0% and the “Mortality at 300 µM, SR” value [2] was 0%. It also gave an IC50 [4, 6] of 3 µM.
With Cc1ccc(C=C2C(=O)NC(=O)N(C3CCCCC3)C2=O)o1 [PTF-2] the IC50 [3, 5] was 5.5 µM, the “Mortality at 300 µM, Slab” value [1] was 12% and the “Mortality at 300 µM, SR” value [2] was 53%. The IC50 [4, 6] was 12.6 µM.
For Cc1ccc(N2C(=O)NC(=O)C(=Cc3ccc(C)o3)C2=O)cc1 [PTF-4], the IC50 [3, 5] was 14 µM, the “Mortality at 300 µM, Slab” value [1] was 78% and the “Mortality at 300 µM, SR” value [2] was 100%. The IC50 [4, 6] was 111 µM.
For Cc1ccc(C=C2C(=O)NC(=O)N(c3ccccc3C)C2=O)o1 [PTF-5], the IC50 [3, 5] was 1.1 µM, the “Mortality at 300 µM, Slab” value [1] was 0% and the “Mortality at 300 µM, SR” value [2] was 0%. For the same molecule, the IC50 [4, 6] was 1.4 µM.
For Cc1cccc(N2C(=O)NC(=O)C(=Cc3ccc(C)o3)C2=O)c1 [PTF-6], the IC50 [3, 5] was 4.4 µM, the “Mortality at 300 µM, Slab” value [1] was 0% and the “Mortality at 300 µM, SR” value [2] was 0%. The IC50 [4, 6] was 4 µM.
Cc1ccc(C=C2C(=O)NC(=O)N(c3ccc(C)c(C)c3)C2=O)o1 [PTF-7] was tested, and the IC50 [3, 5] was 35 µM, the “Mortality at 300 µM, Slab” value [1] was 100% and the “Mortality at 300 µM, SR” value [2] was 100%. The IC50 [4, 6] was 424 µM.
With CCc1ccc(N2C(=O)NC(=O)C(=Cc3ccc(C)o3)C2=O)cc1 [PTF-8] the IC50 [3, 5] was 19 µM, the “Mortality at 300 µM, Slab” value [1] was 60% and the “Mortality at 300 µM, SR” value [2] was 100%. For the same molecule, the IC50 [4, 6] was 312 µM.
In the case of Cc1ccc(C=C2C(=O)NC(=O)N(c3ccc(C(C)C)cc3)C2=O)o1 [PTF-9], the IC50 [3, 5] is reported as 21.5 µM, the “Mortality at 300 µM, Slab” value [1] is reported as 19% and the “Mortality at 300 µM, SR” value [2] is reported as 39%. The IC50 [4, 6] was 132 µM.
In the case of COc1ccccc1N1C(=O)NC(=O)C(=Cc2ccc(C)o2)C1=O [PTF-11], the IC50 [3, 5] is reported as 1 µM, the “Mortality at 300 µM, Slab” value [1] is reported as 0% and the “Mortality at 300 µM, SR” value [2] is reported as 0%. The IC50 [4, 6] was 1.3 µM.
With COc1cccc(N2C(=O)NC(=O)C(=Cc3ccc(C)o3)C2=O)c1 [PTF-12] the IC50 [3, 5] was 6 µM, the “Mortality at 300 µM, Slab” value [1] was 46% and the “Mortality at 300 µM, SR” value [2] was 88%. The IC50 [4, 6] was 54 µM.
With CCOc1ccc(N2C(=O)NC(=O)C(=Cc3ccc(C)o3)C2=O)cc1 [PTF-13] the IC50 [3, 5] was 89 µM, the “Mortality at 300 µM, Slab” value [1] was 64% and the “Mortality at 300 µM, SR” value [2] was 96%. For the same molecule, the IC50 [4, 6] was 236 µM.
For COc1ccc(OC)c(N2C(=O)NC(=O)C(=Cc3ccc(C)o3)C2=O)c1 [PTF-14], the IC50 [3, 5] was 2 µM, the “Mortality at 300 µM, Slab” value [1] was 0% and the “Mortality at 300 µM, SR” value [2] was 0%. For the same molecule, the IC50 [4, 6] was 2 µM.
In the case of Cc1ccc(C=C2C(=O)NC(=O)N(c3ccc(C(=O)O)cc3)C2=O)o1 [PTF-15], the IC50 [3, 5] is reported as 12.9 µM, the “Mortality at 300 µM, Slab” value [1] is reported as 0% and the “Mortality at 300 µM, SR” value [2] is reported as 0%. For the same molecule, the IC50 [4, 6] was 9 µM.
In the case of Cc1ccc(C=C2C(=O)NC(=O)N(Cc3ccco3)C2=O)o1 [PTF-16], the IC50 [3, 5] is reported as 37 µM, the “Mortality at 300 µM, Slab” value [1] is reported as 80% and the “Mortality at 300 µM, SR” value [2] is reported as 100%. For the same molecule, the IC50 [4, 6] was 260 µM.
For Cc1ccc(C=C2C(=O)NC(=O)N(c3ccc(F)cc3)C2=O)o1 [PTF-17], the IC50 [3, 5] was 8 µM, the “Mortality at 300 µM, Slab” value [1] was 15% and the “Mortality at 300 µM, SR” value [2] was 90%. The IC50 [4, 6] was 5 µM.
In the case of Cc1ccc(C=C2C(=O)NC(=O)N(c3ccccc3F)C2=O)o1 [PTF-18], the IC50 [3, 5] is reported as 1.8 µM, the “Mortality at 300 µM, Slab” value [1] is reported as 0% and the “Mortality at 300 µM, SR” value [2] is reported as 0%. For the same molecule, the IC50 [4, 6] was 5.3 µM.
In the case of Cc1ccc(C=C2C(=O)NC(=O)N(CCc3ccc(F)cc3)C2=O)o1 [PTF-19], the IC50 [3, 5] is reported as 3.7 µM, the “Mortality at 300 µM, Slab” value [1] is reported as 0% and the “Mortality at 300 µM, SR” value [2] is reported as 0%. The IC50 [4, 6] was 3.3 µM.
CCOP(=O)(OCC)Oc1ccc([N+](=O)[O-])cc1 [Paraoxon, reference compound] was tested, and the “Mortality at 300 µM, Slab” value [1] was 100% and the “Mortality at 300 µM, SR” value [2] was 100%.
With Nc1c2c(nc3ccccc13)CCCC2 [Tacrine, reference compound] the mortality at 300 µM [1] was 85% and the mortality at 300 µM [2] was 95%.
